One data set addresses T1, CYP3A4 (Homo sapiens, UniProt P08684).
T1 construct: utilizes human liver microsomes together with isoform-specific clinical drug probes; from tissue; host or cells: human liver microsomes
Put plainly: High density DDI 3 μM cocktail screen in human liver microsomes, midazolam probe. The following applies: human, liver microsomes, probe midazolam, read-out: % inhibition 3A4 @ 3 μM. It is filed as in vitro ADME. The procedure: High Density Drug-Drug Interactions (DDI) 3 μM Cocktail Screen
A drug interaction is a situation in which a substance affects the activity of another drug, i.e. the effects are increased or decreased, or together they produce a new effect that neither produces on its own. Drug interactions may be the result of various processes but a relatively common one is where one drug affects the pharmacokinetics of another by inhibiting the cytochrome P450 that metabolises it. Because of the importance of these phenomena, assessment of the DDI potential for new chemical entities (NCEs) is considered important early on in the drug discovery process.
The DDI cocktail screen in human liver microsomes (HLM) is run in a fully automated fashion and the aim of the screen is to provide a single-point assessment of the DDI potential of new chemical entity (NCE; tested at […]) against the 4 primary cytochrome P450 enzymes, 1A2, 2D6, 2C9 and 3A4.
The substrate cocktail approach for P450 DDI utilizes human liver microsomes together with isoform-specific clinical drug probes and permits the simultaneous measurement of the inhibition of P450 1A2, 2C9, 2D6 & 3A4 activities in a single incubation. This is run in high throughput with simultaneous detection of metabolites by LC-MS/MS. This method has been thoroughly tested and evaluated using standard compounds.
Appearance of the metabolite of each substrate is measured over time in the presence and absence of the NCE (test compound/inhibitor) at a concentration of 3 μM. The compounds are assessed for their inhibitory potential as a percentage value and interpreted using the following scheme.
Background: Liver microsomes are a subcellular fraction often used to study metabolism.

Another data set concerns the target MC4 receptor (Homo sapiens, UniProt P32245). Kind of data set: MC4 EC50 functional potency (protocol E of US2005/0176772 / WO 2005/077935). It is filed as cell-based. The procedure:
The compounds of formula (I) of the present invention have utility as MCR4 agonists in the treatment of various disease states.
MC5 and MC4 EC50 activity was determined as described by assay protocols D and E, respectively, in US2005/0176772 (pages 28-30).

Data set [1] in a line: In vitro metabolism rate determination, human liver microsome (HLM) assay. It is filed as in vitro ADME. The following applies: human, liver microsomes, read-out: HLM: Clint, app. The text has this:
In Vitro Metabolism Rate Determination (Human Liver Microsome (HLM); Rat Liver Microsome (RLM) Assay)
Many drugs are metabolised by the cytochrome P450 mono-oxygenase system. This enzyme is found in high concentrations in the liver and is bound to the endoplasmic reticulum of the hepatocyte. The enzyme system can be obtained in semi-purified state by the preparation of the hepatic microsomal fractions. Determining a compound's in vitro half-life in such a system provides a useful indicator of metabolic stability.
Methodology for In Vitro Rate Determination Using Hepatic & Supermix Microsomes
The method outlined below is for a total incubation volume of 1.5 ml.
1. The following mixture is prepared in a test tube:
2. Defrost microsomes at room temperature and add sufficient microsomes to give a final concentration of 0.5 nmol cytochrome P450/ml of incubation e.g. for a 1.5 ml incubation, the volume of microsomes to be added is:
3. Add sufficient MilliQ water to give a total incubation volume of 1.425 ml.
6. Add substrate to the incubation. The substrate should be at an initial concentration of 1 μM. The volume of substrate required in the remaining 1.162.5 ml incubation is calculated as follows: […]
8. Pre-incubate the tube containing the incubation mix, also positive control and no cofactor tubes in the thermostatically controlled shaking water bath set at 37° C. for approx 5 min.
9. Add NADP to initiate reaction (75 μl to each 1.162.5 ml incubation mix, 12.5 μl to positive control tube and 5 μl to no substrate tube) and take first time point immediately. The PNA positive control, no cofactor control and no substrate tubes are incubated for the total incubation time.
10. Remove 100 μl aliquots up to 9 different sampling points from 0 to 60 min (usually 0, 3, 5, 10, 15, 20, 30, 45 & 60 min) and terminate reaction. Longer incubation times can be used, but, after 120 min the microsomes deteriorate. The reaction may be terminated by addition of organic solvent, acid or base. At the end of the incubation process the no cofactor and no substrate controls in a similar manner i.e. terminate with the same reagent.
11. Analyse samples (including no cofactor and no substrate control) by a specific assay for the substrate to determine the disappearance kinetics.
Data obtained using the procedure described above can be quantified in terms of the substrates in vitro intrinsic clearance (Clint). Providing that the substrate concentration is below Km, the metabolism should be 1st order giving a log-linear plot of substrate disappearance with time.
The gradient of this line is the first order rate constant (k) for the substrate disappearance and is determined by regression analysis. This rate constant can be converted to the half-life according to the following equation.
Alternatively the rate constant can be converted to an intrinsic clearance (Clint) according to the following equation:— Clint(μl/min/mg)=(k/protein concentration in incubation (mg/ml))*1000

The target in the next data set is T2, MC4 receptor (MC4R) (Homo sapiens, UniProt P32245).
T2 construct: expressed in transfected cells; host or cells: CHO-CRE MC4R cells (membranes)
Put plainly: Nle4, D-Phe7-α-MSH inhibition at the MC4 receptor (competition binding, SPA, CHO-CRE MC4R membranes). The text has this: Nle4, D-Phe7-α-MSH Inhibition at the MC4 Receptor
Nle4, D-Phe7-α-MSH is a stable analogue of melanocyte-stimulating hormone (MSH), which is an agonist at the MC4 receptor (MC4R). Compounds can be evaluated for their ability to inhibit Nle4, D-Phe7-α-MSH binding to membranes from cells expressing the MC4R using a competition binding assay versus [^125I] Nle4, D-Phe7-α-MSH.
Cells expressing the MC4R were subject to homogenisation and the membrane fragment isolated by differential centrifugation. CHO-CRE MC4R cell membranes were coupled to PVT-PEI-WGA SPA Beads type A for 2 hours, spun at 1000 RPM for 5 min and suspended to a concentration of 300 ug bead/ml (0.15 ug membrane, 15 ug bead per well). Bead/membrane mix was incubated with 0.06 nM [^125I] Nle4, D-Phe7-α-MSH and 11 half-log concentrations of competitor ligand, in duplicate, in a total volume of 50 μl buffer per well (25 mM HEPES, 1 mM MgCl2, 2.5 mM CaCl2, 1% Pluronic F68, 1 complete EDTA protease inhibitor tablet/50 ml pH7). Non-specific binding was determined by the inclusion of 100 nM SHU9119. The reaction was initiated by the addition of bead/membranes and plates were incubated at room temperature for 12 hours (the first hour on a plate shaker), after which the amount of radioactivity present was determined using a Wallac plate counter. Ki values were determined by data analysis using appropriate software.

Another data set deals with T3, MC3 receptor (MC3R) (Homo sapiens, UniProt P41968).
T3 construct: expressed in transfected cells; host or cells: CHO-CRE MC3R cells (membranes)
Put plainly: Nle4, D-Phe7-α-MSH inhibition at the MC3 receptor (competition binding, SPA, CHO-CRE MC3R membranes). The text has this:
Nle4, D-Phe7-α-MSH Inhibition at the MC3 Receptor
Nle4, D-Phe7-α-MSH is a stable analogue of melanocyte-stimulating hormone (MSH), which is an agonist at the MC3 receptor (MC3R). Compounds can be evaluated for their ability to inhibit Nle4, D-Phe7-α-MSH binding to membranes from cells expressing the MC3R using a competition binding assay versus [^125I] Nle4, D-Phe7-α-MSH.
Cells expressing the MC3R were subject to homogenisation and the membrane fragment isolated by differential centrifugation. CHO-CRE MC3R cell membranes were coupled to PVT-PEI-WGA SPA Beads type A for 2 hours, spun at 1000 RPM for 5 mins and suspended to a final assay concentration of 800 ug bead/ml (1.2 ug membrane, 40 ug bead per well). Bead/membrane mix was incubated with 0.06 nM [^125I] Nle4, D-Phe7-α-MSH and 11 half-log concentrations of competitor ligand, in duplicate, in a total volume of 50 μl buffer per well (25 mM HEPES, 1 mM MgCl2, 2.5 mM CaCl2, 1% Pluronic F68, 1 complete EDTA protease inhibitor tablet/50 ml pH7). Non-specific binding was determined by the inclusion of 100 nM SHU9119. The reaction was initiated by the addition of bead/membranes and plates were incubated at room temperature for 12 hours (the first hour on a plate shaker), after which the amount of radioactivity present was determined using a Wallac plate counter. Ki values were determined by data analysis using appropriate software.

One may read the inhibition as the share of the control response that was lost under treatment. As a reminder, the EC50 is the concentration that produces a half-maximal response. A high value points to a less potent agent. The term Ki denotes a measure of affinity in units of concentration, obtained from inhibition or displacement. The low end stands for tighter binding, the high end for weaker binding.

T3 sequence (P41968 whole entry): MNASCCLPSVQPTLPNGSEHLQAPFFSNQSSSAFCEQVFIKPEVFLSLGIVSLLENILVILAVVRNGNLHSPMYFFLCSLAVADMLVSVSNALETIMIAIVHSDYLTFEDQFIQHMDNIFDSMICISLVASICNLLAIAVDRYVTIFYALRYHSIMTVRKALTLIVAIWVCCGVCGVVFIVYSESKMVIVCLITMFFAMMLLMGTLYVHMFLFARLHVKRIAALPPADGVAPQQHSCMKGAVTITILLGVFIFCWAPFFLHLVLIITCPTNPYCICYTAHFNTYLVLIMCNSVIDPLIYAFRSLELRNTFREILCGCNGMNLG
T2 sequence (P32245 whole entry): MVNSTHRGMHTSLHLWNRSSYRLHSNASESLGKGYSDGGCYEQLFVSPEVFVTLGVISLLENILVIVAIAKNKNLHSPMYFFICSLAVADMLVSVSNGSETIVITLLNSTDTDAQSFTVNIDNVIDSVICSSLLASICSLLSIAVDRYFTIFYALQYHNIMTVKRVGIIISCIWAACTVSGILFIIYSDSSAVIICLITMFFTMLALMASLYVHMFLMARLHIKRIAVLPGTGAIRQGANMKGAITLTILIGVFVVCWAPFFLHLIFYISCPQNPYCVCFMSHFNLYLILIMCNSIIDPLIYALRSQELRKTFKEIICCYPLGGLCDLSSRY
Sequence of MC4 receptor (P32245 whole entry): as above
T1 sequence (P08684 whole entry, canonical isoform): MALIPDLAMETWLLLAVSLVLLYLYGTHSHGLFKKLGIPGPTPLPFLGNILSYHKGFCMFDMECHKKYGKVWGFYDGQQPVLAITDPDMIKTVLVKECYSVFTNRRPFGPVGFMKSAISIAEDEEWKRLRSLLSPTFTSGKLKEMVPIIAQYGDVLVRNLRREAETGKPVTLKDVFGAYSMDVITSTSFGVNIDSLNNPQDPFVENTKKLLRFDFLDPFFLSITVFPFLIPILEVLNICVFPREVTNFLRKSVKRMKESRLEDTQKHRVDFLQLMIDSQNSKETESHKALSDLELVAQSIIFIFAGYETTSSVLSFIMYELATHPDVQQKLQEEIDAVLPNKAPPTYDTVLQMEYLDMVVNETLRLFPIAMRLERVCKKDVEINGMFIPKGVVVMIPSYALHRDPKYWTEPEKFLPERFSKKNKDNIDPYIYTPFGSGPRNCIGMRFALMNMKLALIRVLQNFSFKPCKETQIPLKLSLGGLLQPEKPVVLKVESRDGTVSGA

With `COc1ccc(C2CCCN(C(=O)[C@@H]3CN(c4ccc(C#N)nn4)C[C@H]3c3ccc(F)cc3F)CCN2C(C)=O)cc1` (mixture of isomers) [Example 1, 6-[(3S,4R)-3-{[4-acetyl-5-(4-methoxyphenyl)-1,4-diazocan-1-yl]carbonyl}-4-(2,4-difluorophenyl)pyrrolidin-1-yl]pyridazine-3-carbonitrile], the inhibition at 3 µM at CYP3A4 came out at 63%. This compound also gave an EC50 at MC4 receptor of 159 nM. Moreover, the microsomal CLint at 1 μM in data set [1] was 31 µL/min/mg. Further, the inhibitory constant (Ki) on MC4 receptor (MC4R) is 2090 nM; on MC3 receptor (MC3R), 2980 nM.
Taken in the same sequence, the figures for `CC(=O)N1CCN(C(=O)[C@@H]2CN(c3ccc(C#N)nn3)C[C@H]2c2ccc(F)cc2F)CCCC1c1ccccc1F` (mixture of isomers) [Example 2] were 60%, 19 nM, 39 µL/min/mg, 269 nM and 375 nM.
Taken in the same sequence, the figures for `CC(=O)N1CCN(C(=O)[C@@H]2CN(c3cccnn3)C[C@H]2c2ccc(F)cc2F)CCC1c1ccccc1` (mixture of isomers) [Example 3] were 30%, 42.4 nM, 60 µL/min/mg, 521 nM and 3130 nM.
Turning to `COc1cccc(C2CCCN(C(=O)[C@@H]3CN(c4ccc(C#N)nn4)C[C@H]3c3ccc(F)cc3F)CCN2C(C)=O)c1` (mixture of isomers) [Example 4], the inhibition at 3 µM at CYP3A4 was determined as 36.5%. Further, at MC4 receptor, the midpoint of the response, the EC50, lay at 145 nM. For the same compound, the microsomal CLint at 1 μM in data set [1] came out at 237 µL/min/mg. For the same compound, the Ki on MC4 receptor (MC4R) is 555 nM; on MC3 receptor (MC3R) it was 815 nM.
As to `COC(=O)N1CCN(C(=O)[C@@H]2CN(c3ccc(C#N)nn3)C[C@H]2c2ccc(F)cc2F)CCCC1c1ccc(OC)cc1` (mixture of isomers) [Example 48], the inhibition at 3 µM at CYP3A4 is 61.5%. At MC4 receptor, this compound came in with an EC50 of 85.5 nM. In data set [1], the microsomal CLint at 1 μM worked out at 55 µL/min/mg. For the same compound, the figures for the Ki at MC4 receptor (MC4R) and at MC3 receptor (MC3R) were 585 nM and 2660 nM, respectively.
Taken in the same sequence, the figures for `COC(=O)N1CCN(C(=O)[C@@H]2CN(c3cccnn3)C[C@H]2c2ccc(F)cc2F)CCC1c1ccccc1` (mixture of isomers) [Example 49] were 42.5%, 21.1 nM, 86 µL/min/mg, 208 nM and 2230 nM.
Taken in the same sequence, the figures for `COC(=O)N1CCN(C(=O)[C@@H]2CN(c3ccc(C#N)nn3)C[C@H]2c2ccc(F)cc2F)CCCC1c1cccc(OC)c1` (mixture of isomers) [Example 50] were 76.5%, 74 nM, 266 µL/min/mg, 379 nM and 1610 nM.
As for `CS(=O)(=O)N1CCN(C(=O)[C@@H]2CN(c3ccc(C#N)nn3)C[C@H]2c2ccc(C#N)cc2)CCCC1c1ccc(Cl)cc1` (mixture of isomers) [Example 87], the inhibition at 3 µM at CYP3A4 is 50%. Further, at MC4 receptor, the response was half-maximal at 168 nM (EC50). Also, the inhibition constant (Ki) at MC4 receptor (MC4R) is 927 nM; on MC3 receptor (MC3R) it was 2150 nM.
Consider `COC(=O)N1CCN(C(=O)[C@@H]2CN(c3cccnn3)C[C@H]2c2ccc(OC)cc2F)CCC1c1ccc(Cl)cc1` (mixture of isomers) [Example 95], for which, on CYP3A4, the inhibition at 3 µM is 41.9%. At MC4 receptor, this compound gave a 50% effective concentration (EC50) of 8.18 nM. In data set [1], the microsomal CLint at 1 μM worked out at 41.7 µL/min/mg. Besides, the Ki at MC3 receptor (MC3R) is 4040 nM.
Taken in the same sequence, the figures for `COC(=O)N1CCN(C(=O)[C@@H]2CN(c3ccc(C#N)nn3)C[C@H]2c2ccc(F)cc2F)CCC[C@H]1c1ccc(Cl)cc1` [Example 55] were 70.6%, 5.16 nM, 9.75 µL/min/mg and 154 nM.
Take `CC1(C(=O)N2CCN(C(=O)[C@@H]3CN(C(C)(C)C)C[C@H]3c3ccc(F)cc3F)CCC[C@H]2c2ccc(Cl)cc2)CC1` [Example 60, 1-{[(3S,4R)-1-tert-butyl-4-(2,4-difluorophenyl)pyrrolidin-3-yl]carbonyl}-5S-(4-chlorophenyl)-4-(1-methylcyclopropylcarbonyl)-1,4-diazocane]: the inhibition at 3 µM on CYP3A4 was determined as 44.9%. The EC50 on MC4 receptor came out at 4.81 nM. The microsomal CLint at 1 μM in data set [1] was 31.1 µL/min/mg. The Ki on MC4 receptor (MC4R) is 90.9 nM.
For the compound `COc1ccc([C@@H]2CN(C(C)(C)C)C[C@H]2C(=O)N2CCC[C@@H](c3ccc(Cl)cc3)N(C(=O)C3CC(F)(F)C3)CC2)c(F)c1` [Example 62], at CYP3A4, the inhibition at 3 µM was 0%. The same compound yielded an EC50 on MC4 receptor of 18.4 nM. For the same compound, the Ki at MC4 receptor (MC4R) was 3660 nM.

(Values after US8592403B2, “Diazepine and diazocane compounds as MC4 agonists” (Pfizer Limited, priority 2008, dated 2013).)
